Paper PMC4297530 (Biological psychiatry, 2014)

Tests used:
[1] = system: Hsp90 / α-tubulin acetylation and Hsp90-FKBP51/52 association; experiment: Co-immunoprecipitation and acetylation blots in RN46 serotonin cell line; assay type: cell-based, rat; details: 2.5 uM, RN46 cells, vs vehicle
[2] = system: histone acetylation in brain; details: at the dose used in present study (5 mg/kg i.p.); cited from earlier work
[3] = system: plasma corticosterone (HPA axis); experiment: Combined DEX/CRF test, plasma corticosterone; assay type: in vivo, mouse
[4] = system: GR translocation in RN46A-B14 cells; experiment: DEX-induced GR-GFP translocation, high-content imaging; assay type: cell-based, rat; details: 2.5 μM for 1 hour, then 1 μM DEX 30 min, p<0.05 vs. vehicle

| SMILES | association of Hsp90 with FKBP51 ([1]; co-IP) | interaction of Hsp90 with FKBP52 ([1]; co-IP) | acetylation of α-tubulin ([1]; input samples) | acetylation of Hsp90 at lysine 294 [1] | histone acetylation in brain [2] | CORT response following DEX/CRF challenge ([3]; chronic ACY-738 treatment, data not shown) | GR translocation induced by dexamethasone [4] | percent change in plasma corticosterone, resilient mice ([3]; 6 hours after DEX 0.05 mg/kg, CSDS resilient mice) [%] | percent change in plasma corticosterone, control mice ([3]; 6 hours after DEX 0.05 mg/kg, undefeated control mice) [%] |
| --- | --- | --- | --- | --- | --- | --- | --- | --- | --- |
| O=C(NO)c1cnc(NC2(c3ccccc3)CC2)nc1 [ACY-738] | increased association | reduced interaction | increase | increased acetylation | does not elevate | did not alter | significantly reduced |  |  |
| CN1CCc2c(c3ccccc3n2Cc2ccc(C(=O)NO)cc2)C1 [Tubastatin A] |  |  |  |  |  |  | significantly reduced |  |  |
| C[C@@H]1C[C@H]2[C@@H]3CCC4=CC(=O)C=C[C@]4(C)[C@@]3(F)[C@@H](O)C[C@]2(C)[C@@]1(O)C(=O)CO [dexamethasone] |  |  |  |  |  |  |  | −34 | −13 |
